Source: patent publication US4110327A, “2,3 Diketo-piperazinocarbonylamino alkanoic acids and derivatives” (Toyama Chemical Co., Ltd., priority 1974, dated 1978)
≈ marks a conversion by molar mass, not a printed value.

Tests used:
Proteus mirabilis = assay: MIC against clinical isolates; format: cell-based; settings: clinical isolate, unit assumed
β-lactamase = assay: Resistant activity against β-lactamase, iodometric assay; format: biochemical, Pseudomonas aeruginosa GN 238; settings: relative to Potassium Penicillin G = 100
Protocol: (3) Resistant activity against β-lactamase, Pseudomonas aergionan GN 238:
The resistant activity of each compound against β-lactamase was measured in the manner described below.
β-Lactamase was prepared from Pseudomonas aeruginosa GN 238. This microorganism was cultured in 100 ml of a medium containing 2 g of yeast extract, 10 g of polypeptone, 2 g of glucose, 7 g of disodium hydrogen phosphate, 2 g of potassium dihydrogen phosphate, 1.2 g of ammonium sulfate and 0.4 g of magnesium sulfate, per liter, in a 500-ml Erlenmeyer flask for 6 hrs. at 37° C with shaking. The resulting cells were collected by centrifugation (5,000 r.p.m. × 10 min.), washed three times with 0.1 M phosphate buffer (pH 7.0). Subsequently, the cells were subjected to sonication (20 KHz, 20 min.) and then centrifuged at 15,000 r.p.m. for 60 min. By using the supernatant of enzyme fluid, the resistance of each compound against β-lactamase was determined by the iodometric assay method. Each numeral shown in Table 7 is a relative activity value calculated by assuming as 100 the activity of the control Potassium Penicillin G.

Proteus morganii = assay: MIC against clinical isolates; format: cell-based; settings: clinical isolate, unit assumed
Proteus vulgaris = assay: MIC against clinical isolates; format: cell-based; settings: clinical isolate, unit assumed
Proteus rettgeri = assay: MIC against clinical isolates; format: cell-based; settings: clinical isolate, unit assumed
Proteus vulgaris 3027 = assay: MIC against standard strain, plate method; format: cell-based; settings: Proteus vulgaris 3027, standard strain; unit assumed
Procedure, shortened: (§1)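 Plate-method MIC. Medium: heart infusion agar, pH 7.4. Inoculum: 10^4 cells per plate (10^6 cells/ml).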

[1] = tested on: Pseudomonas aeruginosa I.F.O.; assay: MIC against standard strain, plate method; format: cell-based; settings: unit assumed
Procedure, shortened: as §1

Klebsiella pneumoniae [2] = assay: MIC against standard strain, plate method; format: cell-based; settings: unit assumed
Procedure, shortened: as §1

Escherichia coli NIHJ = assay: MIC against standard strain, plate method; format: cell-based; settings: unit assumed
Procedure, shortened: as §1

[3] = tested on: Staphylococcus aureus 209p; assay: MIC against standard strain, plate method; format: cell-based; settings: unit assumed
Procedure, shortened: as §1

Pseudomonas aeruginosa = assay: MIC against clinical isolates; format: cell-based; settings: unit assumed
Escherichia coli = assay: MIC against clinical isolates; format: cell-based; settings: unit assumed
Klebsiella pneumoniae [4] = assay: MIC against clinical isolates; format: cell-based; settings: unit assumed
Staphylococcus aureus = assay: MIC against clinical isolates; format: cell-based; settings: unit assumed
Salmonella typhi-murium = assay: MIC against clinical isolates; format: cell-based; settings: unit assumed
Salmonella typhi = assay: MIC against clinical isolates; format: cell-based; settings: unit assumed
Shigella sonnei = assay: MIC against clinical isolates; format: cell-based; settings: unit assumed
Protocol: (§2) The minimum inhibitory concentrations (MIC) was determined by the plate method disclosed in "Chemotherapy" (Japan), Vol. 16, (1968), pages 98 - 99. The culture medium used was a Heart infusion agar (pH 7.4). The number of the cells per plate used in the inoculum as 10^4 (10^6 cells/ml).
(§3) MIC was determined in the same manner as in the preceding paragraph (1).

Shigella flexneri = assay: MIC against clinical isolates; format: cell-based; settings: unit assumed
Protocol: as §2, §3

[5] = clinical isolate GN (number not given; Table 5-3)

Q: `CCCCCCCCN1CCN(C(=O)N[C@@H](C(=O)N[C@@H]2C(=O)N3[C@@H]2SC(C)(C)[C@@H]3C(=O)O)c2ccccc2)CC1=O` [compound 30] was tested. Which MIC (Proteus mirabilis) did it give?
A: 3.13 µg/mL (≈ 5.33 µM)

Q: What about the Relative activity (β-lactamase) of the same compound?
A: 3%

Q: And the MIC (Proteus morganii)?
A: 3.13 µg/mL (≈ 5.33 µM)

Q: And the MIC (Proteus vulgaris)?
A: 3.13 µg/mL (≈ 5.33 µM)

Q: What about the MIC (Proteus rettgeri) of the same compound?
A: 12.5 µg/mL (≈ 21.3 µM)

Q: And the MIC (Proteus vulgaris 3027)?
A: 3.13 µg/mL (≈ 5.33 µM)

Q: And the MIC [1]?
A: 25 µg/mL (≈ 42.5 µM)

Q: What about the MIC (Klebsiella pneumoniae [2]) of the same compound?
A: 6.25 µg/mL (≈ 10.6 µM)

Q: What about the MIC (Escherichia coli NIHJ) of the same compound?
A: < 1.57 µg/mL

Q: And the MIC [3]?
A: < 1.57 µg/mL

Q: What about the MIC (Pseudomonas aeruginosa; clinical isolate GN 82) of the same compound?
A: 25 µg/mL (≈ 42.5 µM)

Q: And the MIC (Pseudomonas aeruginosa; clinical isolate GN 163)?
A: 25 µg/mL (≈ 42.5 µM)

Q: And the MIC (Pseudomonas aeruginosa; clinical isolate GN 221)?
A: 50 µg/mL (≈ 85.1 µM)

Q: And the MIC (Pseudomonas aeruginosa; clinical isolate GN 376)?
A: 50 µg/mL (≈ 85.1 µM)

Q: And the MIC (Pseudomonas aeruginosa; clinical isolate GN 383)?
A: 50 µg/mL (≈ 85.1 µM)

Q: What about the MIC (Pseudomonas aeruginosa; clinical isolate GN 1035) of the same compound?
A: 50 µg/mL (≈ 85.1 µM)

Q: What about the MIC (Pseudomonas aeruginosa; clinical isolate GN 1091) of the same compound?
A: 25 µg/mL (≈ 42.5 µM)

Q: And the MIC (Pseudomonas aeruginosa; clinical isolate GN 2565)?
A: 50 µg/mL (≈ 85.1 µM)

Q: And the MIC (Pseudomonas aeruginosa; clinical isolate GN 2987)?
A: 12.5 µg/mL (≈ 21.3 µM)

Q: What about the MIC (Pseudomonas aeruginosa; [5]) of the same compound?
A: 50 µg/mL (≈ 85.1 µM)

Q: What about the MIC (Pseudomonas aeruginosa; clinical isolate S-1) of the same compound?
A: 50 µg/mL (≈ 85.1 µM)

Q: And the MIC (Pseudomonas aeruginosa; clinical isolate S-2)?
A: 50 µg/mL (≈ 85.1 µM)

Q: What about the MIC (Pseudomonas aeruginosa; clinical isolate S-3) of the same compound?
A: 100 µg/mL (≈ 170 µM)

Q: What about the MIC (Pseudomonas aeruginosa; clinical isolate S-4) of the same compound?
A: 50 µg/mL (≈ 85.1 µM)

Q: And the MIC (Escherichia coli; clinical isolate GN 3435)?
A: 12.5 µg/mL (≈ 21.3 µM)

Q: And the MIC (Escherichia coli; clinical isolate GN 3452)?
A: 25 µg/mL (≈ 42.5 µM)

Q: What about the MIC (Escherichia coli; clinical isolate GN 3465) of the same compound?
A: 50 µg/mL (≈ 85.1 µM)

Q: And the MIC (Escherichia coli; clinical isolate GN 3481)?
A: 25 µg/mL (≈ 42.5 µM)

Q: And the MIC (Escherichia coli; clinical isolate GN 3611)?
A: > 200 µg/mL

Q: What about the MIC (Escherichia coli; clinical isolate K-1) of the same compound?
A: 12.5 µg/mL (≈ 21.3 µM)

Q: And the MIC (Escherichia coli; clinical isolate K-2)?
A: 25 µg/mL (≈ 42.5 µM)

Q: What about the MIC (Escherichia coli; clinical isolate K-3) of the same compound?
A: > 200 µg/mL

Q: What about the MIC (Escherichia coli; clinical isolate K-4) of the same compound?
A: 12.5 µg/mL (≈ 21.3 µM)

Q: What about the MIC (Klebsiella pneumoniae [4]; clinical isolate GN 917) of the same compound?
A: 25 µg/mL (≈ 42.5 µM)

Q: What about the MIC (Klebsiella pneumoniae [4]; clinical isolate GN 3850) of the same compound?
A: 25 µg/mL (≈ 42.5 µM)

Q: And the MIC (Klebsiella pneumoniae [4]; clinical isolate GN 4081)?
A: 100 µg/mL (≈ 170 µM)

Q: What about the MIC (Klebsiella pneumoniae [4]; clinical isolate GN 4117) of the same compound?
A: 100 µg/mL (≈ 170 µM)

Q: And the MIC (Staphylococcus aureus; clinical isolate F-1)?
A: 3.13 µg/mL (≈ 5.33 µM)

Q: What about the MIC (Staphylococcus aureus; clinical isolate F-2) of the same compound?
A: 0.79 µg/mL (≈ 1.34 µM)

Q: What about the MIC (Staphylococcus aureus; clinical isolate F-3) of the same compound?
A: 0.79 µg/mL (≈ 1.34 µM)

Q: What about the MIC (Staphylococcus aureus; clinical isolate F-4) of the same compound?
A: 3.13 µg/mL (≈ 5.33 µM)

Q: And the MIC (Staphylococcus aureus; clinical isolate F-5)?
A: 100 µg/mL (≈ 170 µM)

Q: And the MIC (Staphylococcus aureus; clinical isolate MS 8588)?
A: 1.57 µg/mL (≈ 2.67 µM)

Q: What about the MIC (Staphylococcus aureus; clinical isolate MS 8596) of the same compound?
A: 1.57 µg/mL (≈ 2.67 µM)

Q: And the MIC (Staphylococcus aureus; clinical isolate MS 8619)?
A: < 0.4 µg/mL

Q: What about the MIC (Staphylococcus aureus; clinical isolate MS 8684) of the same compound?
A: 1.57 µg/mL (≈ 2.67 µM)

Q: And the MIC (Staphylococcus aureus; clinical isolate MS 8713)?
A: 1.57 µg/mL (≈ 2.67 µM)

Q: Which results are given for `CCN1CCN(C(=O)N[C@@H](C(=O)N[C@@H]2C(=O)N3[C@@H]2SC(C)(C)[C@@H]3C(=O)O)c2ccccc2)C(=O)C1=O` [compound 36]?
A: MIC (Proteus mirabilis): < 0.4 µg/mL; Relative activity (β-lactamase): 14%; MIC (Proteus morganii): < 0.4 µg/mL; MIC (Proteus vulgaris): < 0.4 µg/mL; MIC (Salmonella typhi-murium; clinical isolate SL 858): 6.25 µg/mL (≈ 12.1 µM); MIC (Salmonella typhi-murium; clinical isolate SL 2136): > 200 µg/mL; MIC (Salmonella typhi; clinical isolate SL 819): 1.57 µg/mL (≈ 3.03 µM); MIC (Salmonella typhi; clinical isolate SL 2169): 1.57 µg/mL (≈ 3.03 µM); MIC (Proteus rettgeri): 12.5 µg/mL (≈ 24.2 µM); MIC (Shigella sonnei; clinical isolate JS 11232): 50 µg/mL (≈ 96.6 µM); MIC (Shigella sonnei; clinical isolate JS 11755): 3.13 µg/mL (≈ 6.05 µM); MIC (Shigella flexneri; clinical isolate JS 11215): 100 µg/mL (≈ 193 µM); MIC (Shigella flexneri; clinical isolate JS 11839): 3.13 µg/mL (≈ 6.05 µM); MIC (Proteus vulgaris 3027): < 1.57 µg/mL; MIC (Klebsiella pneumoniae [2]): < 1.57 µg/mL; MIC (Escherichia coli NIHJ): < 1.57 µg/mL; MIC [3]: < 1.57 µg/mL; MIC (Pseudomonas aeruginosa; clinical isolate GN 221): 3.13 µg/mL (≈ 6.05 µM); MIC (Pseudomonas aeruginosa; clinical isolate GN 1035): 25 µg/mL (≈ 48.3 µM); MIC (Pseudomonas aeruginosa; clinical isolate GN 2565): 25 µg/mL (≈ 48.3 µM); MIC (Pseudomonas aeruginosa; clinical isolate GN 2987): 12.5 µg/mL (≈ 24.2 µM); MIC (Pseudomonas aeruginosa; [5]): 12.5 µg/mL (≈ 24.2 µM); MIC (Pseudomonas aeruginosa; clinical isolate S-1): 50 µg/mL (≈ 96.6 µM); MIC (Pseudomonas aeruginosa; clinical isolate S-2): 12.5 µg/mL (≈ 24.2 µM); MIC (Pseudomonas aeruginosa; clinical isolate S-3): 25 µg/mL (≈ 48.3 µM); MIC (Pseudomonas aeruginosa; clinical isolate S-4): 50 µg/mL (≈ 96.6 µM); MIC (Escherichia coli; clinical isolate GN 3452): 3.13 µg/mL (≈ 6.05 µM); MIC (Escherichia coli; clinical isolate GN 3465): 100 µg/mL (≈ 193 µM); MIC (Escherichia coli; clinical isolate GN 3481): 3.13 µg/mL (≈ 6.05 µM); MIC (Escherichia coli; clinical isolate GN 3611): > 200 µg/mL; MIC (Escherichia coli; clinical isolate K-1): 3.13 µg/mL (≈ 6.05 µM); MIC (Escherichia coli; clinical isolate K-2): 3.13 µg/mL (≈ 6.05 µM); MIC (Escherichia coli; clinical isolate K-3): > 200 µg/mL; MIC (Klebsiella pneumoniae [4]; clinical isolate GN 3850): 12.5 µg/mL (≈ 24.2 µM); MIC (Klebsiella pneumoniae [4]; clinical isolate GN 4081): 100 µg/mL (≈ 193 µM); MIC (Klebsiella pneumoniae [4]; clinical isolate GN 4117): 100 µg/mL (≈ 193 µM); MIC (Staphylococcus aureus; clinical isolate F-1): 12.5 µg/mL (≈ 24.2 µM); MIC (Staphylococcus aureus; clinical isolate F-2): 3.13 µg/mL (≈ 6.05 µM); MIC (Staphylococcus aureus; clinical isolate F-5): > 200 µg/mL; MIC (Staphylococcus aureus; clinical isolate MS 8588): 3.13 µg/mL (≈ 6.05 µM); MIC (Staphylococcus aureus; clinical isolate MS 8596): 3.13 µg/mL (≈ 6.05 µM); MIC (Staphylococcus aureus; clinical isolate MS 8619): 0.79 µg/mL (≈ 1.53 µM); MIC (Staphylococcus aureus; clinical isolate MS 8684): 3.13 µg/mL (≈ 6.05 µM)
